According to paper PMC11671014 (PLOS Pathogens, 2024):
“Also recorded” adds a separate entry of the source. Like-named read-outs stand apart in the source and are kept apart here.

Legend:
[1] = target: Atg7 (autophagy-related protein-7) (Homo sapiens, UniProt O95352); test: ATG7 E1-E2 transthiolation HTRF assay (GABARAP); format: biochemical; conditions: read-out: ATG7 IC50 HTRF RH-GABARAP
From the text: An Homogeneous Time-Resolved Fluorescence (HTRF) enzyme assay was employed to evaluate compound activity against ATG7 as previously described. In this assay, a Flag-tagged ATG8 homolog (GABA type A receptor-associated protein; GABARAP) is activated by ATG7 and then transthiolated to a GST-tagged E2 (ATG3). The product of the enzyme reaction, Flag-GABARAP-ATG3-GST, is quantified by measuring FRET between Europium-Cryptate labelled monoclonal anti-Flag M2 (FLAG M2-Eu cryptate; Revvity, Cat# 61FG2KLB) and […] (Anti-GST IgG conjugated to SureLight-Allophycocyanin) (Revvity, Cat# AD0059G)). The activation and transthiolation of ubiquitin by UAE, activation and transthiolation of NEDD8 by NAE and activation and transthiolation of SUMO by SAE were all assayed in a similar fashion with appropriately tagged ubiquitin-like proteins and E2 conjugating enzymes as described.

[2] = test system: stage V NF54 strain male and female gametocytes; test: P. falciparum Dual Gamete Formation Assay (PfDGFA); format: cell-based; conditions: Plasmodium falciparum, 48 h
Experimental: Inhibition of the viability of stage V male and female gametocytes was assessed in the P. falciparum Dual Gamete Formation Assay (PfDGFA) as described previously. Briefly, mature stage V NF54 strain gametocytes were incubated with test molecules for 48 h in 384-well plates at 37°C. Gametogenesis was then triggered by cooling the plates to room temperature and addition of xanthurenic acid-containing activating medium (also containing anti-Pfs25 antibody (Mab 4B7) conjugated to a Cy3 fluorophore). Twenty minutes after activation, exflagellation was imaged in all wells of the plate using a x4 objective and automated brightfield microscopy. The plate was then incubated at 20°C for a further 24 h in the dark. Thereafter, female gamete formation was quantified by automated identification of Pfs25-positive cells. Automated counts were transformed to percent inhibition values with reference to positive 100 nM Cabamiquine (DDD498) and negative (DMSO) controls. Data represent the means of multiple independent biological repeats.

[3] = test system: P. falciparum (strain 3D7A); test: Parasite Reduction Rate (PRR) estimation; format: cell-based, Plasmodium falciparum; conditions: 10 x IC50
Experimental: PRR was assessed using a standardized method. P. falciparum (strain 3D7A, MRA-151), contributed by David Walliker, was obtained through BEI Resources, NIAID, NIH. Cultures of parasites (~90% ring stage) were treated with compounds for 120 h, with daily renewal. Samples of parasites were taken at 0, 24, 48, 72, 96 and 120 h. Compounds were washed out and four independent 3-fold serial dilutions were established in 96-well plates, with fresh RBCs and culture medium. After 18 days, and again at 22 days, samples were taken to examine growth using SYBR Green I in an EnVision Multilabel Plate Reader (Perkin Elmer) and analysed using Excel and Grafit 5.0 software. The human biological samples were sourced ethically, and their research use was in accord with the terms of the informed consents under an IRB/EC approved protocol.

Rat pharmacokinetics = format: in vivo, Sprague-Dawley rats; conditions: for half-life: read-out: T1/2z (converted)
Experimental: Sprague-Dawley rats (11 weeks old) were sourced from Hilltop Lab Animals, Inc (Scottdale, Pennsylvania, USA). […] Blood was collected from a jugular cannula at 0.083, 0.25, 0.5, 1, 2, 4, 8 and 24 h post i.v. dosing, and at the same times (except the 0.083-h sample) following oral administration. A portion of the blood samples were processed into plasma. Samples were precipitated with 0.5% formic acid in methanol and the supernatants were analysed by positive ion electrospray LC-MS for the administered compound. Non-compartmental pharmacokinetic parameters were calculated from individual concentration vs time profiles using Phoenix 64 WinNonlin (Version 8.1 Certara, Princeton NJ).

[4] = test system: P. falciparum (Pf3D7^0087/N9); test: Therapeutic efficacy and tolerability in the SCID mouse P. falciparum model; format: in vivo, Plasmodium falciparum in NODscidIL2Rγ^null mice
Experimental: The model using P. falciparum Pf3D7^0087/N9 in NODscidIL2Rγ^null mice engrafted with human RBCs was adapted from a previously described procedure. Female NODscidIL2Rγ^null mice were purchased from Charles River (Germany). Briefly, two engrafted mice/dosing group (females, 20–22 g) were infected intravenously with 2 x 10^7 P. falciparum (Pf3D7^0087/N9) on day 0. The antimalarial efficacy was assessed following administration (p.o.) of 100 or 200 mg/kg of compound or of 4 daily doses of 50 mg/kg, initiated on day 3 post-infection. The effect on blood parasitemia was measured by microscopic analysis of Giemsa-stained blood smears (on days 3, 4, 5, 6 and 7 post-infection). Mice were euthanized on day 7. Animal were monitored for symptoms of acute toxicity, including decreased activity, sunken flanks, ataxia and blood in faeces.

[5] = male, Sprague-Dawley, IV 1 mg/kg, plasma
[6] = male, Sprague-Dawley, PO 1 mg/kg, plasma
[7] = male, Sprague-Dawley, PO 10 mg/kg, plasma
[8] = male, Sprague-Dawley, PO 25 mg/kg, plasma
[9] = male, Sprague-Dawley, whole blood, IV 1 mg/kg, blood
[10] = male, Sprague-Dawley, whole blood, PO 1 mg/kg, blood
[11] = male, Sprague-Dawley, whole blood, PO 10 mg/kg, blood
[12] = male, Sprague-Dawley, whole blood, PO 25 mg/kg, blood

Chain of Atg7 (autophagy-related protein-7) (O95352 whole entry): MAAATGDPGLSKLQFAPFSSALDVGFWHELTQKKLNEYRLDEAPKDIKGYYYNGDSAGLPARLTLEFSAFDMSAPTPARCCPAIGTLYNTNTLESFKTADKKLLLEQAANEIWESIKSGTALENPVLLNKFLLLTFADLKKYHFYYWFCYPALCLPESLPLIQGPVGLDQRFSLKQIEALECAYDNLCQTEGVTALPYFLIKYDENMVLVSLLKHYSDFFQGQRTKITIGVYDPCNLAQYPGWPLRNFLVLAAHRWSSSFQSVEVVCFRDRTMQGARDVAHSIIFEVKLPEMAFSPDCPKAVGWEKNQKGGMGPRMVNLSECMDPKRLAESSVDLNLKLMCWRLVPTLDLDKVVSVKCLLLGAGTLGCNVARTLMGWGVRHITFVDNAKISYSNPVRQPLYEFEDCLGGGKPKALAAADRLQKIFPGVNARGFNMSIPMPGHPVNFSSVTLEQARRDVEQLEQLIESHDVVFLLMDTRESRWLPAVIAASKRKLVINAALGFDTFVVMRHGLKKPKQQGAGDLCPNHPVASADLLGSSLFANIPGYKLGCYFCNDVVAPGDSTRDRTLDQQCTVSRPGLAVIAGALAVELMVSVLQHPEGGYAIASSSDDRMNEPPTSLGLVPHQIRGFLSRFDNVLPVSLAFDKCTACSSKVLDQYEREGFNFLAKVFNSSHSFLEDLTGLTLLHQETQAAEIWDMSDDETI

Q: Which IC50 [1] does the source give for `CC(C)c1nn([C@@H]2O[C@H](COS(N)(=O)=O)[C@@H](O)[C@H]2O)c2ncnc(N)c12` [ML471, ((2R,3S,4R,5R)-5-(4-amino-3-isopropyl-1H-pyrazolo[3,4-d]pyrimidin-1-yl)-3,4-dihydroxytetrahydrofuran-2-yl)methyl sulfamate] here?
A: 0.022 ± 0.009 µM

Q: What about the IC50 ([2]; female, read-out: Dual gamete formation assay (female) IC50(48h)) of the same compound?
A: 0.26 µM

Q: What about the IC50 ([2]; male, read-out: Dual gamete formation assay (male) IC50(48h)) of the same compound?
A: 0.049 µM

Q: And the Lag phase [3]?
A: 0 h

Q: And the “Log PRR” value [3]?
A: 4.1

Q: And the PCT99.9% [3]?
A: 32 h

Q: What about the Slope [3] of the same compound?
A: -0.09

Q: What about the “dose recovered in 0–24 h urine as parent” value (Rat pharmacokinetics; 0–24 h urine) of the same compound?
A: 9–38 % of the dose

Q: And the “area under the curve” value (Rat pharmacokinetics; 25 mg/kg p.o., blood)?
A: 30 µM·h

Q: And the “blood clearance as share of liver blood flow” value (Rat pharmacokinetics; IV dose of 1 mg/kg)?
A: ~ 4 % of liver blood flow

Q: What about the Cmax (Rat pharmacokinetics; [5]) of the same compound?
A: 1.54 µM

Q: And the Tmax (Rat pharmacokinetics; [5])?
A: 0.08 h

Q: And the clearance (Rat pharmacokinetics; [5])?
A: 3.84 L/h/kg

Q: What about the half-life (Rat pharmacokinetics; [5]) of the same compound?
A: 2.22 h

Q: And the Cmax (Rat pharmacokinetics; [6])?
A: 0.0191 µM

Q: What about the Tmax (Rat pharmacokinetics; [6]) of the same compound?
A: 0.5 h

Q: And the bioavailability (Rat pharmacokinetics; male, Sprague-Dawley, PO 1 mg/kg, plasma, read-out: %F)?
A: 27.7%

Q: And the half-life (Rat pharmacokinetics; [6])?
A: 8.78 h

Q: What about the Cmax (Rat pharmacokinetics; [7]) of the same compound?
A: 0.196 µM

Q: And the Tmax (Rat pharmacokinetics; [7])?
A: 0.38 h

Q: And the bioavailability (Rat pharmacokinetics; male, Sprague-Dawley, PO 10 mg/kg, plasma, read-out: %F)?
A: 25.2%

Q: What about the half-life (Rat pharmacokinetics; [7]) of the same compound?
A: 9.15 h

Q: And the Cmax (Rat pharmacokinetics; [8])?
A: 0.393 µM

Q: What about the Tmax (Rat pharmacokinetics; [8]) of the same compound?
A: 0.75 h

Q: And the bioavailability (Rat pharmacokinetics; male, Sprague-Dawley, PO 25 mg/kg, plasma, read-out: %F)?
A: 16.4%

Q: And the half-life (Rat pharmacokinetics; [8])?
A: 3.57 h

Q: And the Vd (Rat pharmacokinetics; male, Sprague-Dawley, plasma, iv, 1 mg/kg, IV 1 mg/kg, plasma, read-out: Vss)?
A: 2.79 L/kg

Q: And the Vd (Rat pharmacokinetics; male, Sprague-Dawley, plasma, iv, 1 mg/kg, IV 1 mg/kg, plasma, read-out: Vz)?
A: 12.3 L/kg

Q: And the blood plasma ratio at 0.083 h (Rat pharmacokinetics; male, Sprague-Dawley, whole blood and plasma, intravenous, 1 mg/kg, time 0.083 h)?
A: 0.8

Q: What about the blood plasma ratio at 0.25 h (Rat pharmacokinetics; male, Sprague-Dawley, whole blood and plasma, intravenous, 1 mg/kg, time 0.25 h) of the same compound?
A: 1.5

Q: And the blood plasma ratio at 0.5 h (Rat pharmacokinetics; male, Sprague-Dawley, whole blood and plasma, intravenous, 1 mg/kg, time 0.5 h)?
A: 2.1

Q: And the blood plasma ratio at 1 h (Rat pharmacokinetics; male, Sprague-Dawley, whole blood and plasma, intravenous, 1 mg/kg, time 1 h)?
A: 5.5

Q: What about the blood plasma ratio at 2 h (Rat pharmacokinetics; male, Sprague-Dawley, whole blood and plasma, intravenous, 1 mg/kg, time 2 h) of the same compound?
A: 17.8

Q: And the blood plasma ratio at 4 h (Rat pharmacokinetics; male, Sprague-Dawley, whole blood and plasma, intravenous, 1 mg/kg, time 4 h)?
A: 48.9

Q: And the blood plasma ratio at 8 h (Rat pharmacokinetics; male, Sprague-Dawley, whole blood and plasma, intravenous, 1 mg/kg, time 8 h)?
A: 114

Q: What about the blood plasma ratio (Rat pharmacokinetics; male, Sprague-Dawley, whole blood and plasma, iv, 1 mg/kg, i.v. PK study, read-out: blood to plasma ratio at the initial sampling times) of the same compound?
A: ~1

Q: What about the Cmax (Rat pharmacokinetics; [9]) of the same compound?
A: 1.18 µM

Q: What about the Tmax (Rat pharmacokinetics; [9]) of the same compound?
A: 0.17 h

Q: And the clearance (Rat pharmacokinetics; [9])?
A: 0.138 L/h/kg

Q: What about the half-life (Rat pharmacokinetics; [9]) of the same compound?
A: 36.6 h

Q: And the Cmax (Rat pharmacokinetics; [10])?
A: 0.0393 µM

Q: And the Tmax (Rat pharmacokinetics; [10])?
A: 16 h

Q: And the bioavailability (Rat pharmacokinetics; male, Sprague-Dawley, whole blood, PO 1 mg/kg, blood, read-out: %F)?
A: 9.29%

Q: And the half-life (Rat pharmacokinetics; [10])?
A: 23.2 h

Q: And the Cmax (Rat pharmacokinetics; [11])?
A: 0.261 µM

Q: What about the Tmax (Rat pharmacokinetics; [11]) of the same compound?
A: 6 h

Q: What about the bioavailability (Rat pharmacokinetics; male, Sprague-Dawley, whole blood, PO 10 mg/kg, blood, read-out: %F) of the same compound?
A: 9.56%

Q: What about the half-life (Rat pharmacokinetics; [11]) of the same compound?
A: 29.5 h

Q: And the Cmax (Rat pharmacokinetics; [12])?
A: 0.669 µM

Q: What about the Tmax (Rat pharmacokinetics; [12]) of the same compound?
A: 8 h

Q: And the bioavailability (Rat pharmacokinetics; male, Sprague-Dawley, whole blood, PO 25 mg/kg, blood, read-out: %F)?
A: 8.72%

Q: What about the half-life (Rat pharmacokinetics; male, Sprague-Dawley, whole blood, PO 25 mg/kg, blood, terminal half-life, T1/2∞) of the same compound?
A: 30.5 h

Q: And the Vd (Rat pharmacokinetics; male, Sprague-Dawley, whole blood, iv, 1 mg/kg, IV 1 mg/kg, blood, read-out: Vss)?
A: 6.25 L/kg

Q: And the Vd (Rat pharmacokinetics; male, Sprague-Dawley, whole blood, iv, 1 mg/kg, IV 1 mg/kg, blood, read-out: Vz)?
A: 6.54 L/kg

Q: And the bioavailability (Rat pharmacokinetics; male, Sprague-Dawley, whole blood, oral, blood, range over doses, read-out: %F (blood), rat oral bioavailability)?
A: 8.72 to 9.56%

Q: What about the “effect on 3D7 parasitemia, 4 x daily doses” value ([4]; 4 x daily doses of 50 mg/kg p.o. from day 3 post-infection) of the same compound?
A: reduced the 3D7 parasitemia to baseline

Q: And the “tolerability / toxicity in SCID mice (in words)” value ([4]; 100 or 200 mg/kg p.o. single dose, 4 x 50 mg/kg p.o.)?
A: well tolerated; also recorded: no evidence of toxicity

Q: And the “effect on 3D7 parasitemia, single dose regimen” value ([4]; either 100 or 200 mg/kg p.o. on day 3 post-infection)?
A: reduction of 3D7 parasitemia to baseline
